Data on 23 compounds can be found in US9745291B2, “PRMT5 inhibitors containing a dihydro- or tetrahydroisoquinoline and uses thereof” (Epizyme, Inc., priority 2012, dated 2017).

For assay [1], the system named is Z-138 cell line. In words: Z-138 Proliferation Assay (Cell Titer Glo, 5 days). The note with it: Z-138 cells. In kind it is cell-based. The essentials: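 Z-138 cells at 10,000 cells/ml in RPMI 1640 with 10% heat-inactivated FBS treated with nine-point 3-fold dilutions, top final concentration 20 μM, 0.2% DMSO, for 5 days at 37° C, 5% CO2. Viability by Cell Titer Glo ATP luminescence; 50% inhibition concentration from 4-parameter fit.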
On the technique in general: Cellular ATP, detected with luciferase, serves as a proxy for viable cell number.

Assay [2] has as its target PRMT5/MEP50 (Homo sapiens (Human), UniProt O14744). In words: PRMT5 Biochemical Assay (PRMT5/MEP50 enzyme assay on peptide substrate, 3H-SAM Flashplate).
Assay [3] deals with symmetric di-methyl arginine in Z-138 cells. In words: Z-138 Methylation Assay (In Cell Western for symmetric di-methyl arginine and DNA content). In kind it is cell-based. Particulars: read-out: ICW EC50. From the text:
[formula] Where top and bottom are the normally allowed to float, but may be fixed at 100 or 0 respectively in a 3-parameter fit. The Hill Coefficient normally allowed to float but may also be fixed at 1 in a 3-parameter fit. Y is the % inhibition and X is the compound concentration. Z-138 Methylation Assay
Z-138 suspension cells were purchased from ATCC (American Type Culture Collection, Manassas, Va.). RPMI/Glutamax medium, penicillin-streptomycin, heat inactivated fetal bovine serum, and D-PBS were purchased from Life Technologies, Grand Island, N.Y., USA. Odyssey blocking buffer, 800CW goat anti-rabbit IgG (H+L) antibody, and Licor Odyssey infrared scanner were purchased from Licor Biosciences, Lincoln, Nebr., USA. Symmetric di-methyl arginine antibody was purchased from EMD Millipore, Billerica, Mass., USA. 16% Paraformaldehyde was purchased from Electron Microscopy Sciences, Hatfield, Pa., USA.
Z-138 suspension cells were maintained in growth medium (RPMI 1640 supplemented with 10% v/v heat inactivated fetal bovine serum and 100 units/mL penicillin-streptomycin) and cultured at 37° C. under 5% CO2.
Cell Treatment, in Cell Western (ICW) for Detection of Symmetric Di-Methyl Arginine and DNA Content.
Z-138 cells were seeded in assay medium at a concentration of 50,000 cells per mL to a 384-well cell culture plate with 50 μL per well. Compound (100 nL) from 384 well source plates was added directly to 384 well cell plate. Plates were incubated at 37° C., 5% CO2 for 96 hours. After four days of incubation, 40 μL of cells from incubated plates were added to poly-D-lysine coated 384 well culture plates (BD Biosciences 356697). Plates were incubated at room temperature for 30 minutes then incubated at 37° C., 5% CO2 for 5 hours. After the incubation, 40 μL per well of 8% paraformaldehyde in PBS (16% paraformaldahyde was diluted to 8% in PBS) was added to each plate and incubated for 30 minutes. Plates were transferred to a Biotek 405 plate washer and washed 5 times with 100 μL per well of wash buffer (1×PBS with 0.1% Triton X-100 (v/v)). Next 30 μL per well of Odyssey blocking buffer were added to each plate and incubated 1 hour at room temperature. Blocking buffer was removed and 20 μL per well of primary antibody was added (symmetric di-methyl arginine diluted 1:100 in Odyssey buffer with 0.1% Tween 20 (v/v)) and plates were incubated overnight (16 hours) at 4° C. Plates were washed 5 times with 100 μL per well of wash buffer. Next 20 μL per well of secondary antibody was added (1:200 800CW goat anti-rabbit IgG (H+L) antibody, 1:1000 DRAQ5 (Biostatus limited) in Odyssey buffer with 0.1% Tween 20 (v/v)) and incubated for 1 hour at room temperature. The plates were washed 5 times with 100 μL per well wash buffer then 1 time with 100 μL per well of water. Plates were allowed to dry at room temperature then imaged on the Licor Odyssey machine which measures integrated intensity at 700 nm and 800 nm wavelengths. Both 700 and 800 channels were scanned.
First, the ratio for each well was determined by:
Each plate included fourteen control wells of DMSO only treatment (minimum inhibition) as well as fourteen control wells for maximum inhibition treated with 3 μM of a reference compound (Background wells). The average of the ratio values for each control type was calculated and used to determine the percent inhibition for each test well in the plate. Reference compound was serially diluted three-fold in DMSO for a total of nine test concentrations, beginning at 3 μM. Percent inhibition was determined and IC50 curves were generated using triplicate wells per concentration of compound. […]

[4] abbreviates: PRMT5 biochemical assay, read-out: Biochemical IC50.
[5] abbreviates: Homo sapiens, Z-138, Z-138 cells.

Read-outs that look alike come from different tables or passages of the source.

Chain of PRMT5/MEP50 (O14744 other isoform, or with tags, fused parts or gaps): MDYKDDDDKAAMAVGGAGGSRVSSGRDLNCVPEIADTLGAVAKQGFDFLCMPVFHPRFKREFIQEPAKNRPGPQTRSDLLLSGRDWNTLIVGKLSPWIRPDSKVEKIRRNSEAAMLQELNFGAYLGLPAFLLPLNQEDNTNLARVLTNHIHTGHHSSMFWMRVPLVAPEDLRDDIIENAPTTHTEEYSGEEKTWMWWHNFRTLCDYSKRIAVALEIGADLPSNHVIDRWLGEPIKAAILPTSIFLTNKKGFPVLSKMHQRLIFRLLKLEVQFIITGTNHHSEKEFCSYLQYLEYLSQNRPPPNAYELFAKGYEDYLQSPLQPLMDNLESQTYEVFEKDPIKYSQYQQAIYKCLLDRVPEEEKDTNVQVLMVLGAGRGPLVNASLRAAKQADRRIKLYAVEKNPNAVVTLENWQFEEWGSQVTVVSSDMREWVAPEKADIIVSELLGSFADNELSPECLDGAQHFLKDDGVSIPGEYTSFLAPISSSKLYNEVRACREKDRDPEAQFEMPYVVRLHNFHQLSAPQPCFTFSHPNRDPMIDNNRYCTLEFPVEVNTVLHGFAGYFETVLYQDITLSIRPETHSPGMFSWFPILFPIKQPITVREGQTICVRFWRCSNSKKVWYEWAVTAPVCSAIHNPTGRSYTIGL
Chain of PRMT5/MEP50 (Q9BQA1 other isoform, or with tags, fused parts or gaps partner): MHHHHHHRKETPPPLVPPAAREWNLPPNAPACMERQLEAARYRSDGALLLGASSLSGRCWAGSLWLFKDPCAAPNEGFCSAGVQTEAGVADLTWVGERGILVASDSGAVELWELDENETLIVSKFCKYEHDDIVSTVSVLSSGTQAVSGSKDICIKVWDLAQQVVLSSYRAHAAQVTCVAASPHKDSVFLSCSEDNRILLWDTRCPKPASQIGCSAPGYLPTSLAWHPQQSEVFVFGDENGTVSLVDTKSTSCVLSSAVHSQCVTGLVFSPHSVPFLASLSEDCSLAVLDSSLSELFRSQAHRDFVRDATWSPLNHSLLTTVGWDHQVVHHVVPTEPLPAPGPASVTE

What is called EC50 is the concentration giving half of the maximal effect. A word on the IC50: it is the concentration that inhibits the measured activity by half. With `Cn1cncc1-c1cccc(OCC(=O)NC[C@@H](O)CN2CCc3ccccc3C2)c1` [Compound 255], the 50% effective concentration (EC50) in assay [1] (Homo sapiens, Z-138, 120 h) is greater than 20 µM; in assay [3] (setting [5]), 0.101 to 1 µM. In addition, the half-inhibitory concentration (IC50) in assay [2] (setting [4]) fell in the range of 0.101 to 1 µM.
For the compound `Cn1cc(-c2ccccc2)nc1CCC(=O)NC[C@H](O)CN1CCc2ccccc2C1` [Compound 256], the EC50 in assay [1] (Homo sapiens, Z-138, 120 h) is greater than 20 µM; in assay [3] (setting [5]), 0.101 to 1 µM. Besides, the IC50 in assay [2] (setting [4]) was 0.101 to 1 µM.
Consider `CN1CC(CN(C)S(=O)(=O)c2ccccc2OCC(=O)NC[C@@H](O)CN2CCc3ccccc3C2)C1` [Compound 257], for which the EC50 was 0.101 to 1 µM in assay [1] (Homo sapiens, Z-138, 120 h) and less than 0.1 µM in assay [3] (setting [5]). In addition, the concentration for half-maximal inhibition (IC50) in assay [2] (setting [4]) is less than 0.1 µM.
`CN1CCCCC1c1ccccc1OCC(=O)NCC(O)CN1CCc2ccccc2C1` (stereo not drawn) [Compound 258]: the 50% effective concentration (EC50) was in the range of 1 to 10 µM in assay [1] (Homo sapiens, Z-138, 120 h) and 0.101 to 1 µM in assay [3] (setting [5]). The IC50 in assay [2] (setting [4]) fell in the range of 0.101 to 1 µM.
With `Cn1ccnc1CCC(=O)NC[C@H](O)CN1CCc2ccccc2C1` [Compound 259], the EC50 in assay [1] (Homo sapiens, Z-138, 120 h) is greater than 20 µM; in assay [3] (setting [5]) it was 0.101 to 1 µM. Also, the IC50 in assay [2] (setting [4]) was 0.101 to 1 µM.
On to `CC(C)N(C)CCN(C)S(=O)(=O)c1ccccc1OCC(=O)NC[C@@H](O)CN1CCc2ccccc2C1` [Compound 260], for which the EC50 in assay [1] (Homo sapiens, Z-138, 120 h) was 1 to 10 µM; in assay [3] (setting [5]), less than 0.1 µM. Further, in assay [2] (setting [4]), the IC50 was less than 0.1 µM.
Take `O=C(COc1ccccc1[C@H]1CCCNC1)NC[C@H](O)CN1CCc2ccccc2C1` [Compound 261]: the 50% effective concentration (EC50) in assay [1] (Homo sapiens, Z-138, 120 h) lay in the range of 1 to 10 µM; in assay [3] (setting [5]) it was 0.101 to 1 µM. Moreover, the IC50 in assay [2] (setting [4]) is less than 0.1 µM.
Taken in the same sequence, the figures for `O=C(COc1ccccc1[C@@H]1CCCNC1)NC[C@H](O)CN1CCc2ccccc2C1` [Compound 262] were 10 to 50 µM, 0.101 to 1 µM and less than 0.1 µM.
Taken in the same sequence, the figures for `O=C(COc1ccccc1[C@H]1CCCNC1)NC[C@@H](O)CN1CCc2ccccc2C1` [Compound 263] were 10 to 50 µM, 0.101 to 1 µM and 0.101 to 1 µM.
Taken in the same sequence, the figures for `O=C(COc1ccccc1[C@@H]1CCCNC1)NC[C@@H](O)CN1CCc2ccccc2C1` [Compound 264] were 10 to 50 µM, greater than 1 µM and 0.101 to 1 µM.
Turning to `CS(=O)(=O)Nc1cccc(OCC(=O)NC[C@@H](O)CN2CCc3ccccc3C2)c1C1CCCNC1` (stereo partly drawn) [Compound 265], the half-maximal effective concentration (EC50) in assay [1] (Homo sapiens, Z-138, 120 h) is greater than 20 µM; in assay [3] (setting [5]), greater than 1 µM. The half-inhibitory concentration (IC50) in assay [2] (setting [4]) lay within 0.101 to 1 µM.
On the same counts, the results for `CC(C)N1CCCC(c2c(NS(C)(=O)=O)cccc2OCC(=O)NC[C@@H](O)CN2CCc3ccccc3C2)C1` (stereo partly drawn) [Compound 266] are greater than 20 µM, greater than 1 µM and 0.101 to 1 µM.
On the same counts, the results for `O=C(COc1cccc(C(=O)NCCc2ncc[nH]2)c1)NC[C@@H](O)CN1CCc2ccccc2C1` [Compound 267] are greater than 20 µM, greater than 1 µM and 0.101 to 1 µM.
In the case of `[2H]C1([2H])Cc2ccccc2C([2H])([2H])N1C[C@H](O)CNC(=O)COc1cccc2cccnc12` [Compound 269], the concentration for a half-maximal effect (EC50) in assay [1] (Homo sapiens, Z-138, 120 h) is greater than 5 µM; in assay [3] (setting [5]), 0.101 to 1 µM. For the same compound, in assay [2], the IC50 lay within 0.101 to 1 µM.
For the compound `O=C(COc1ccccc1N1CCNCC1)NC[C@H](O)CN1CCc2ccccc2C1` [Compound 271], the EC50 in assay [1] (Homo sapiens, Z-138, 120 h) is 1 to 10 µM; in assay [3] (setting [5]), less than 0.1 µM. Moreover, the IC50 in assay [2] (setting [4]) is less than 0.1 µM.
In the case of `CN(C)C1CCN(S(=O)(=O)c2ccccc2OCC(=O)NC[C@@H](O)CN2CCc3ccccc3C2)C1` (stereo partly drawn) [Compound 273], the half-maximal effective concentration (EC50) in assay [1] (Homo sapiens, Z-138, 120 h) was in the range of 10 to 50 µM; in assay [3] (setting [5]), 0.101 to 1 µM. Further, the IC50 in assay [2] (setting [4]) was less than 0.1 µM.
Taken in the same sequence, the figures for `CN1CC[C@H](CN(C)S(=O)(=O)c2ccccc2OCC(=O)NC[C@@H](O)CN2CCc3ccccc3C2)C1` [Compound 274] were 0.101 to 1 µM, less than 0.1 µM and less than 0.1 µM.
Taken in the same sequence, the figures for `CN1CCN(c2cccc(OCC(=O)NC[C@@H](O)CN3CCc4ccccc4C3)c2S(=O)(=O)N(C)C)CC1` [Compound 275] were less than 0.1 µM, less than 0.1 µM and less than 0.1 µM.
In the case of `CC1CN(c2cccc(OCC(=O)NC[C@@H](O)CN3CCc4ccccc4C3)c2S(=O)(=O)N(C)C)CCN1` (stereo partly drawn) [Compound 276], the EC50 was less than 0.1 µM in assay [1] (Homo sapiens, Z-138, 120 h) and less than 0.1 µM in assay [3] (setting [5]). The IC50 in assay [2] (setting [4]) was less than 0.1 µM.
`CCN1CCN(c2cccc(OCC(=O)NC[C@@H](O)CN3CCc4ccccc4C3)c2S(=O)(=O)N(C)C)CC1` [Compound 277]: the half-maximal effective concentration (EC50) was less than 0.1 µM in assay [1] (Homo sapiens, Z-138, 120 h) and less than 0.1 µM in assay [3] (setting [5]). For the same compound, the IC50 in assay [2] (setting [4]) is less than 0.1 µM.
Take `CN(C)S(=O)(=O)c1c(OCC(=O)NC[C@@H](O)CN2CCc3ccccc3C2)cccc1N1CCN(C2CC2)CC1` [Compound 278]: the EC50 in assay [1] (Homo sapiens, Z-138, 120 h) is less than 0.1 µM; in assay [3] (setting [5]) it was less than 0.1 µM. Moreover, in assay [2] (setting [4]), the IC50 is less than 0.1 µM.
As to “N-(3-(3,4-dihydroisoquinolin-2(1H)-yl)-2-hydroxypropyl)-2-((1-(1-methylpiperidin-4-yl)-1H-indazol-5-yl)oxy)acetamide [Compound 71]”, the concentration for a half-maximal effect (EC50) is greater than 20 µM in assay [1] and 0.101 to 1 µM in assay [3] (Z-138 cells). Moreover, the IC50 in assay [2] (setting [4]) is less than 0.1 µM.
Taken in the same sequence, the figures for “N-(3-(3,4-dihydroisoquinolin-2(1H)-yl)-2-hydroxypropyl)-2-((1-(piperidin-4-yl)-1H-indazol-5-yl)oxy)acetamide [Compound 70]” were greater than 20 µM, 0.101 to 1 µM and less than 0.1 µM.
